Measured values taken from patent publication EP0326331B1, “Substituted quinolines and cinnolines” (Dow AgroSciences LLC, priority 1988, dated 1989).

Columns and labels:
Assay type in all cases: in vivo
[1] = test system: Cercospora beticola (leaf spot); experiment: Test 1 greenhouse foliar spray screen, leaf spot on sugar beet; conditions: disease control rating, foliar spray on sugar beet, 400 ppm (+++ at 100 ppm)
[2] = test system: Puccinia recondita tritici (leaf rust); experiment: Test 1 greenhouse foliar spray screen, leaf rust on wheat; conditions: disease control rating, foliar spray on wheat, 400 ppm (+++ at 100 ppm)
[3] = test system: melon aphids (Aphis gossypii Glover); experiment: Mite/insect screen, MA; conditions: percent mortality, SAW; for mortality at 200 ppm / mortality at 400 ppm: Aphis gossypii, read-out: MA RESULTS %; for mortality at 400 ppm: SM & MA RATE 400 PPM
Summary of the method: (§1)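 Read-out: percent mortality after standard exposure periods. Test solutions were water dilutions of compound dissolved in acetone/alcohol (50:50) with emulsifier blends; leaves were sprayed to runoff on both surfaces and air-dried for one hour before exposure.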

[4] = test system: corn rootworm; experiment: Mite/insect screen, CRW; conditions: percent mortality; for mortality at 12 ppm / mortality at 24 ppm: read-out: CRW RESULTS %; for mortality at 24 ppm: CRW RATE 24.00 PPM
Summary of the method: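 Read-out: % mortality after standard exposure. Formulation: acetone/alcohol (50:50) with emulsifiers at 23 g and 13 g per liter, water-diluted to final test levels.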

[5] = test system: Septoria tritici (leaf blotch); experiment: Test 1 greenhouse foliar spray screen, leaf blotch on wheat; conditions: disease control rating, foliar spray on wheat, 400 ppm (+++ at 100 ppm)
[6] = test system: Erysiphe graminis tritici (powdery mildew); experiment: Test 1 greenhouse foliar spray screen, powdery mildew on wheat; conditions: disease control rating, foliar spray on wheat, 400 ppm (+++ at 100 ppm)
[7] = test system: Pseudoperonospora cubensis (downy mildew); experiment: Test 1 greenhouse foliar spray screen, downy mildew on squash; conditions: for DOWN MDEW: disease control rating, foliar spray on squash, 400 ppm (+++ at 100 ppm)
[8] = test system: Twospotted spider mites (Tetranychus urticae Koch); experiment: Mite/insect screen, SM; conditions: for mortality at 200 ppm / mortality at 400 ppm: Tetranychus urticae, read-out: SM RESULTS %; for mortality at 400 ppm: SM & MA RATE 400 PPM
Summary of the method: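 Foliar spray to runoff (10 psi), 1 h drying; aqueous dilutions from acetone/alcohol emulsifier stock. Mortality (%) after standard exposure.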

[9] = test system: Pyricularia oryzae (rice blast); experiment: whole plant or invertebrate; conditions: disease control rating, foliar spray on rice, 400 ppm (+++ at 100 ppm)
[10] = test system: Botrytis cinerea (gray mold); experiment: Test 1 greenhouse foliar spray screen, gray mold on grape berries; conditions: disease control rating, spray on grape berries, 400 ppm (+++ at 100 ppm)
[11] = test system: Venturia inaequalis (apple scab); experiment: Test 1 greenhouse foliar spray screen, apple scab on apple seedling; conditions: disease control rating, foliar spray on apple seedling, 400 ppm (+++ at 100 ppm)
[12] = test system: southern armyworm (Spodopetra eridania Cramer); experiment: Mite/insect screen, SAW; conditions: percent mortality, SAW; for mortality at 200 ppm / mortality at 400 ppm: Spodoptera eridania, read-out: SAW RESULTS %; for mortality at 400 ppm: SM & MA RATE 400 PPM
Summary of the method: as §1

[13] = percent mortality, SAW, SM & MA RATE 200 PPM
[14] = summary statement in the description

| SMILES | LEAF SPOT [1] | LEAF RUST [2] | mortality at 200 ppm ([3]; SM & MA RATE 200 PPM) [%] | mortality at 400 ppm [3] [%] | mortality at 12 ppm ([4]; CRW RATE 12.00 PPM) [%] | mortality at 24 ppm [4] [%] | LEAF BLOT [5] | POWD MDEW [6] | DOWN MDEW [7] | mortality at 200 ppm [8, 13] [%] | mortality at 400 ppm ([8]; percent mortality, SAW) [%] | RICE BLAST [9] | GRAY MOLD [10] | APPL SCAB [11] | mortality at 200 ppm ([12]; SM & MA RATE 200 PPM) [%] | mortality at 400 ppm [12] [%] | also measured |
| --- | --- | --- | --- | --- | --- | --- | --- | --- | --- | --- | --- | --- | --- | --- | --- | --- | --- |
| COc1ccc(CCNc2ccnc3cc(Cl)ccc23)cc1 [Example 84, 7-chloro-N-[2-(4-methoxyphenyl)ethyl]-4-quinolinamine] | + (20-89% control at 400 ppm) | ++ (90-100% control at 400 ppm) | 0 | 0 | 0 | 0 | - (0-19% control at 400 ppm) | +++ (90-100% control at 100 ppm) | ++ (90-100% control at 400 ppm) | 0 | 0 | ++ (90-100% control at 400 ppm) | - (0-19% control at 400 ppm) | - (0-19% control at 400 ppm) | 10 | 0 |  |
| Cc1ccc(CCNc2ccnc3c(Cl)cccc23)cc1 [Example 87, 8-chloro-N-[2-(4-methylphenyl)ethyl]-4-quinolinamine] | - (0-19% control at 400 ppm) | + (20-89% control at 400 ppm) | 0 | 0 | 0 | 0 | - (0-19% control at 400 ppm) | - (0-19% control at 400 ppm) | +++ (90-100% control at 100 ppm) | 0 | 0 | - (0-19% control at 400 ppm) | - (0-19% control at 400 ppm) | - (0-19% control at 400 ppm) | 0 | 0 |  |
| Cc1ccc2c(NCCc3ccc(Cl)cc3)ccnc2c1C [Example 88, N-[2-(4-chlorophenyl)ethyl]-7,8-dimethyl-4-quinolinamine] | + (20-89% control at 400 ppm) | ++ (90-100% control at 400 ppm) | 0 | 0 | 0 | 0 | - (0-19% control at 400 ppm) | - (0-19% control at 400 ppm) | ++ (90-100% control at 400 ppm) | 0 | 0 | - (0-19% control at 400 ppm) | - (0-19% control at 400 ppm) | - (0-19% control at 400 ppm) | 0 | 0 |  |
| Fc1cccc2c(NCCc3ccccc3)c(Br)cnc12 [Example 91, 3-bromo-8-fluoro-N-(2-phenylethyl)-4-quinolinamine] | - (0-19% control at 400 ppm) | - (0-19% control at 400 ppm) | 0 |  | 0 |  | - (0-19% control at 400 ppm) | + (20-89% control at 400 ppm) | ++ (90-100% control at 400 ppm) | 0 |  | + (20-89% control at 400 ppm) | - (0-19% control at 400 ppm) | - (0-19% control at 400 ppm) | 0 |  |  |
| CC(Cc1ccccc1)Nc1ccnc2c(F)cccc12 (stereo not drawn) [Example 92, 8-fluoro-H-(1-methyl-2-phenylethyl)-4-quinolinamine] | + (20-89% control at 400 ppm) | +++ (90-100% control at 100 ppm) | 0 |  | 0 |  | +++ (90-100% control at 100 ppm) | + (20-89% control at 400 ppm) | ++ (90-100% control at 400 ppm) | 0 |  | ++ (90-100% control at 400 ppm) | - (0-19% control at 400 ppm) | - (0-19% control at 400 ppm) | 0 |  |  |
| Clc1cc(NCCc2ccccc2)c2cccc(Cl)c2n1 [Example 93, 2,8-dichloro-N-(2-phenylethyl)-4-quinolinamine] | + (20-89% control at 400 ppm) | - (0-19% control at 400 ppm) | 0 |  | 0 |  | + (20-89% control at 400 ppm) | - (0-19% control at 400 ppm) | - (0-19% control at 400 ppm) | 0 |  | - (0-19% control at 400 ppm) | - (0-19% control at 400 ppm) | - (0-19% control at 400 ppm) | 0 |  |  |
| Fc1cccc2c(NCCc3ccc(Br)cc3)ccnc12 [Example 94, N-[2-(4-bromophenyl)ethyl]-8-fluoro-4-quinolinamine] | +++ (90-100% control at 100 ppm) | +++ (90-100% control at 100 ppm) | 0 |  | 100 |  | + (20-89% control at 400 ppm) | + (20-89% control at 400 ppm) | +++ (90-100% control at 100 ppm) | 0 |  | +++ (90-100% control at 100 ppm) | - (0-19% control at 400 ppm) | - (0-19% control at 400 ppm) | 0 |  | activity as miticides [8, 14]: particularly excellent activity |
| Fc1cccc2c(NCCc3cccc(C(F)(F)F)c3)ccnc12 [Example 95, 8-fluoro-N-[2-[3-(trifluoromethyl)phenyl]ethyl]-4-quinolinamine] | + (20-89% control at 400 ppm) | +++ (90-100% control at 100 ppm) | 0 |  | 0 |  | +++ (90-100% control at 100 ppm) | + (20-89% control at 400 ppm) | +++ (90-100% control at 100 ppm) | 0 |  | ++ (90-100% control at 400 ppm) | + (20-89% control at 400 ppm) | + (20-89% control at 400 ppm) | 20 |  | MA RESULTS % ([3]; SM & MA RATE 200 PPM): 0%; CRW RESULTS % ([4]; CRW RATE 12.00 PPM): 0%; activity against downy mildew [7, 14]: particularly excellent activity; SM RESULTS % [8, 13]: 0%; SAW RESULTS % ([12]; SM & MA RATE 200 PPM): 40% |
